From patent publication US20090069405A1, “TREATMENT OF CNS AND PAIN DISORDERS” (Valexfarm, Ltd., priority 2007, published 2009)

How the values were obtained:
Assay type in all cases: in vivo
[1] = system: mice; assay: Forced Swim Test
Protocol: Forced Swim Test. The test apparatus consisted of a clear plastic cylindrical tank, 35 cm high and 25 cm in diameter, which was filled to a depth of 25 cm with tap water equilibrated overnight to room temperature (24° C.). A glass plate covered the top of the tank to prevent escape while the mouse was swimming. The water in the tank was replaced by fresh water at room temperature after three mice had been tested. To habituate the mouse, it was forced to swim in the tank for 15 min., then removed and dried by toweling and a heat lamp, and returned to its cage. Twenty-four hours later, the mouse was returned to the tank and allowed to swim for 5 min. while its swimming activity was recorded by a video camera, mounted above the tank. After this, the mouse was dried and returned to its cage. End points of the test were total time spent floating in an immobile position, without paddling of limbs (swimming) (Porsolt et al. Nature (1977) 266:730-732).

[2] = system: mice; assay: Hot plate test; settings: peroral administration, 50 mg/kg, plate 55.0±0.5° C., 30 min after compound
Protocol: Hot plate test. Male mice weighing from 25 to 30 g were used in this test. […] The surface of the plate was maintained at a temperature of 55.0±0.5° C. […] Time (in seconds) to either hind paw licking or jumping was recorded as pain response latency. To avoid the likelihood of tolerance of mice to hot plate, all mice were exposed to hot plate only once through the whole experiment. The mice were exposed to hot plate only once; either before or after injection of drug.

[3] = system: mice; assay: Tail-flick test
Protocol: Tail-flick test. The tail-flick test, using a radiant heat source was carried out to study antinociception. Each mouse was placed in an acrylic tube and its tail was laid across a Nichrome™ wire coil, which was heated by the passage of an electric current. The intensity of the current was kept at 5 mA. All animals were screened for the tail-flick response. Only those showing a flick within 4 sec were included in the study. After 1 h of final dosing, the mice were submitted to three tail-flick tests.

[4] = system: mice; assay: Formalin paw test; settings: formalin 4.5%, 20 μl, left hind paw, dose 30 mg/kg, compared to control
Protocol: Formalin paw test. The mice received an injection of formalin (4.5%, 20 μl) to the left hind paw. The irritation caused by the formalin injection elicits a characteristic biphasic behavioral response as quantified by the amount of time spent licking the injured paw. The first phase (˜5-10 minutes) represents direct chemical […], and the second phase (˜20-30 minutes) is thought to represent pain of neuropathic origin (Tjølsen A et al. Pain (1992) 51:5-17). The two phases are separated by a quiescent period in which behavior returns to normal. The effectiveness of test compounds to reduce the painful stimuli is assessed by counting the amount of time spent licking the injured paw in the two phases.

Compound: NC(=O)N1c2ccccc2C=Cc2ccccc21 [carbamazepine]
- antidepressive effect (total time spent floating immobile) ([1]; 50 mg/kg): significant effect

Compound: CCCC(CCC)C(=O)[O-].[Na+] [sodium valproate]
- antidepressive effect (total time spent floating immobile) ([1]; 250 mg/kg): significant effect

Compound: O=C1CNC(=O)/C1=C\NCc1ccccc1 [tetramic derivative of the invention]
- analgesic effect (pain response latency, hot plate) [2]: analgesic effect
- analgesic effect (tail-flick) compared to phenytoin and valproate ([3]; highest dose tested 500 mg/kg, versus phenytoin 100 mg/kg and valproate 500 mg/kg): relatively better analgesic effect
- analgesic effect (tail-flick) ([3]; peroral administration, 1 h after final dosing): analgesic effect
- antidepressive effect (total time spent floating immobile) ([1]; 100 mg/kg): significant antidepressive effect
- reduction in pain score in the chronic phase [4]: 5%
